Experimental data from patent EP0406992A2, “New non-ionic carboxamide contrast agent” (SCHERING AKTIENGESELLSCHAFT, priority 1989, dated 1991).
Like-named read-outs stand apart in the source and are kept apart here. Marks after values point to notes of the source that are not given here.

Key:
[1] = tested on: männl. Maus 16-20 g; conditions: male mouse 16-20 g, approximate range
[2] = tested on: männl. Ratte 80-100 g; conditions: male rat 80-100 g, approximate range
[3] = values marked * (Laut Literaturangabe); cited from earlier work
[4] = Osmolality of contrast agent solutions; assay type: physicochemical; conditions: for Osmolalität von 300 mg I/ml Lösungen wäßrige Lösung: aqueous solution; for Osmolalität von 300 mg I/ml Lösungen pharmazeutisch formul. Lösung: pharmaceutically formulated solution
[5] = Viscosity of contrast agent solutions at 37 °C; assay type: physicochemical; conditions: for Viskosität von 300 mg I/ml bei 37 °C: pharmaceutically formulated solution, determined in applicant's laboratory

CC(=O)N(CC(O)CO)c1c(I)c(C(=O)NCC(O)CO)c(I)c(C(=O)NCC(O)CO)c1I (centres unmarked) [Iohexol]
Näherungsbereich i.v. LD₅₀ männl. Maus 16-20 g [1]: 16-17 g I/kg | Näherungsbereich i.v. LD₅₀ männl. Ratte 80-100 g [2]: 11,5-12,5 g I/kg

C[C@H](O)C(=O)Nc1c(I)c(C(=O)NC(CO)CO)c(I)c(C(=O)NC(CO)CO)c1I [Iopamidol]
Näherungsbereich i.v. LD₅₀ männl. Maus 16-20 g [1]: 16-18 g I/kg | Viskosität von 300 mg I/ml bei 37 °C [3]: 4,7* cps | Osmolalität von 300 mg I/ml Lösungen wäßrige Lösung [4]: 671 mOsm | Osmolalität von 300 mg I/ml Lösungen pharmazeutisch formul. Lösung [4]: 704 mOsm | Näherungsbereich i.v. LD₅₀ männl. Ratte 80-100 g [2]: 12-13 g I/kg

COCC(=O)Nc1c(I)c(C(=O)NCC(O)CO)c(I)c(C(=O)N(C)CC(O)CO)c1I (centres unmarked) [Iopromid]
Näherungsbereich i.v. LD₅₀ männl. Maus 16-20 g [1]: 14-16 g I/kg | Viskosität von 300 mg I/ml bei 37 °C [3]: 4,6* cps | Osmolalität von 300 mg I/ml Lösungen wäßrige Lösung [4]: 607 mOsm | Osmolalität von 300 mg I/ml Lösungen pharmazeutisch formul. Lösung [4]: 630 mOsm | Näherungsbereich i.v. LD₅₀ männl. Ratte 80-100 g [2]: 11-12 g I/kg

CC(=O)N(CC(O)CO)c1c(I)c(C(=O)NCCO)c(I)c(C(=O)NCC(O)CO)c1I (centres unmarked) [Ioxilan, reference compound]
Näherungsbereich i.v. LD₅₀ männl. Maus 16-20 g [1]: 16-18 g I/kg | Viskosität von 300 mg I/ml bei 37 °C [5]: 4,7 cps | Osmolalität von 300 mg I/ml Lösungen wäßrige Lösung [4]: 560 mOsm | Osmolalität von 300 mg I/ml Lösungen pharmazeutisch formul. Lösung [4]: 588 mOsm | Näherungsbereich i.v. LD₅₀ männl. Ratte 80-100 g [2]: 12-13 g I/kg

CC(=O)N(CCO)c1c(I)c(C(N)=O)c(I)c(C(=O)NC(CO)C(O)CO)c1I (stereo not drawn) [Verbindung 11, 5-{N-(2-Hydroxyethylacetamido)}-2,4,6-triiod-3-{N-(1,3,4-trihydroxy-threo-but-2-yl)}carbamoyl-Benzamid]
Näherungsbereich i.v. LD₅₀ männl. Maus 16-20 g [1]: 15,5-16,5 g I/kg | Viskosität von 300 mg I/ml bei 37 °C [5]: 4,2 cps | Viskosität bei 37 °C ([5]; injection solution 300 mg I/ml, CaNa2-EDTA 56 mg, Trinatriumcitrat 77 mg per 100 ml, pH 5,0 bis 6,0, 37 °C): 4,2 Centipoise | Viskosität bei 37 °C ([5]; injection solution 350 mg I/ml, CaNa2-EDTA 56 mg, Trinatriumcitrat 77 mg per 100 ml, pH 5,0 bis 6,0, 37 °C): 6,6 Centipoise | Viskosität bei 37 °C ([5]; injection solution 400 mg I/ml, CaNa2-EDTA 56 mg, Trinatriumcitrat 77 mg per 100 ml, pH 5,0 bis 6,0, 37 °C): 13,1 Centipoise | Osmolalität von 300 mg I/ml Lösungen wäßrige Lösung [4]: 300 mOsm | Osmolalität von 300 mg I/ml Lösungen pharmazeutisch formul. Lösung [4]: 326 mOsm | Osmolalität ([4]; injection solution 300 mg I/ml, CaNa2-EDTA 56 mg, Trinatriumcitrat 77 mg per 100 ml, pH 5,0 bis 6,0, autoclaved): 301 mOsm/kg | Osmolalität ([4]; injection solution 350 mg I/ml, CaNa2-EDTA 56 mg, Trinatriumcitrat 77 mg per 100 ml, pH 5,0 bis 6,0, autoclaved): 337 mOsm/kg | Osmolalität ([4]; injection solution 400 mg I/ml, CaNa2-EDTA 56 mg, Trinatriumcitrat 77 mg per 100 ml, pH 5,0 bis 6,0, autoclaved): 370 mOsm/kg | Näherungsbereich i.v. LD₅₀ männl. Ratte 80-100 g [2]: 15,5-17,5 g I/kg

CC(=O)N(CC(O)CO)c1c(I)c(C(N)=O)c(I)c(C(=O)NCC(O)CO)c1I (centres unmarked) [Verbindung 19, 5-{N-(2,3-Dihydroxypropyl)acetamido}-2,4,6-triiod-3-{N-(2,3-dihydroxypropyl)}carbamoyl-Benzamid]
Näherungsbereich i.v. LD₅₀ männl. Maus 16-20 g [1]: 14-16 g I/kg | Viskosität von 300 mg I/ml bei 37 °C [5]: 4,1 cps | Viskosität bei 37 °C ([5]; injection solution 300 mg I/ml, CaNa2-EDTA 10 mg, Tris 121 mg per 100 ml, pH 7,0, 37 °C): 4,1 Centipoise | Viskosität bei 37 °C ([5]; injection solution 350 mg I/ml, CaNa2-EDTA 10 mg, Tris 121 mg per 100 ml, pH 7,0, 37 °C): 6,6 Centipoise | Viskosität bei 37 °C ([5]; injection solution 400 mg I/ml, CaNa2-EDTA 10 mg, Tris 121 mg per 100 ml, pH 7,0, 37 °C): 10,6 Centipoise | Osmolalität von 300 mg I/ml Lösungen wäßrige Lösung [4]: 365 mOsm | Osmolalität von 300 mg I/ml Lösungen pharmazeutisch formul. Lösung [4]: 390 mOsm | Osmolalität ([4]; injection solution 300 mg I/ml, CaNa2-EDTA 10 mg, Tris 121 mg per 100 ml, pH 7,0, autoclaved): 399 mOsm/kg | Osmolalität ([4]; injection solution 350 mg I/ml, CaNa2-EDTA 10 mg, Tris 121 mg per 100 ml, pH 7,0, autoclaved): 473 mOsm/kg | Osmolalität ([4]; injection solution 400 mg I/ml, CaNa2-EDTA 10 mg, Tris 121 mg per 100 ml, pH 7,0, autoclaved): 510 mOsm/kg | Näherungsbereich i.v. LD₅₀ männl. Ratte 80-100 g [2]: 13-14 g I/kg

CN(C(=O)CO)c1c(I)c(C(N)=O)c(I)c(C(=O)NC(CO)C(O)CO)c1I (stereo not drawn) [Verbindung 41, 5-{N-(Methyl)-2-hydroxyacetamido}-2,4,6-triiod-3-{N-(1,3,4-trihydroxy-threo-but-2-yl)}-carbamoyl-Benzamid]
Näherungsbereich i.v. LD₅₀ männl. Maus 16-20 g [1]: 16-17,5 g I/kg | Viskosität von 300 mg I/ml bei 37 °C [5]: 3,5 cps | Osmolalität von 300 mg I/ml Lösungen wäßrige Lösung [4]: 314 mOsm | Osmolalität von 300 mg I/ml Lösungen pharmazeutisch formul. Lösung [4]: 322 mOsm | Näherungsbereich i.v. LD₅₀ männl. Ratte 80-100 g [2]: 15-17 g I/kg
